Results on four molecules are retold here after PMC7418496, “In Kluyveromyces lactis a Pair of Paralogous Isozymes Catalyze the First Committed Step of Leucine Biosynthesis in Either the Mitochondria or the Cytosol” (Frontiers in Microbiology, 2020).

By IC50 is commonly meant the midpoint of a concentration-inhibition curve. A low value points to greater potency. A word on the Km: it is the concentration of substrate that gives half-maximal velocity.

The target of data set [1] is T1, KlLeu4 (Kluyveromyces lactis, UniProt Q6CIW1).
T1 construct: gene KLLA0_F23529g; expressed in E. coli BL21(DE3), Ni-NTA purified (tag not described); homodimer
T1 sequence (Q6CIW1 1-609): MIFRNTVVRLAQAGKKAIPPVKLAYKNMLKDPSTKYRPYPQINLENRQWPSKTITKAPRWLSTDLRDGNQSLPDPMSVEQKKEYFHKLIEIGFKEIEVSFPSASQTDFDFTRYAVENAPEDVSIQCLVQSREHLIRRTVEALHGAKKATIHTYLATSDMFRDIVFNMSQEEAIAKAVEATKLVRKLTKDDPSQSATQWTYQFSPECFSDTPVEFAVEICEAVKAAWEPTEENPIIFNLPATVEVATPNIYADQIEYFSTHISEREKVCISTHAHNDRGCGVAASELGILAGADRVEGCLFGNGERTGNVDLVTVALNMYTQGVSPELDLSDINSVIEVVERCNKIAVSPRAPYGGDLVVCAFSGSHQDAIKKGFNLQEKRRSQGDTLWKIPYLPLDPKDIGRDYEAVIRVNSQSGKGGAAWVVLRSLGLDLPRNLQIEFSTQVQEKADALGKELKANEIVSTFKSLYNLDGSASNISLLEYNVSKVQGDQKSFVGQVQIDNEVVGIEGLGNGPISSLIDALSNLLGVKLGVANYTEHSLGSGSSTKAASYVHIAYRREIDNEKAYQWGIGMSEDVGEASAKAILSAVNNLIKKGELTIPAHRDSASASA
The experiment in a line: initial velocity kinetics from kinetic global fit, ordered bi-bi. As to conditions: kinetic dissociation constant; varied with α-KIV 0.002–0.08 mM; 50 mM phosphate pH 7.5, 140 mM KCl, 4 mM MgCl2, 30 °C, DTNB; read-out: Kia /. In kind it is biochemical. An excerpt: initial velocity kinetics from kinetic global fit, ordered bi-bi on KlLeu4

The target in data set [2] is T2, KlLeu4BIS (Kluyveromyces lactis, UniProt Q6CQU3).
T2 construct: gene KLLA0_D14201g; expressed in E. coli Rosetta 2 (DE3), Ni-NTA purified (tag not described); homodimer
T2 sequence (Q6CQU3 1-583): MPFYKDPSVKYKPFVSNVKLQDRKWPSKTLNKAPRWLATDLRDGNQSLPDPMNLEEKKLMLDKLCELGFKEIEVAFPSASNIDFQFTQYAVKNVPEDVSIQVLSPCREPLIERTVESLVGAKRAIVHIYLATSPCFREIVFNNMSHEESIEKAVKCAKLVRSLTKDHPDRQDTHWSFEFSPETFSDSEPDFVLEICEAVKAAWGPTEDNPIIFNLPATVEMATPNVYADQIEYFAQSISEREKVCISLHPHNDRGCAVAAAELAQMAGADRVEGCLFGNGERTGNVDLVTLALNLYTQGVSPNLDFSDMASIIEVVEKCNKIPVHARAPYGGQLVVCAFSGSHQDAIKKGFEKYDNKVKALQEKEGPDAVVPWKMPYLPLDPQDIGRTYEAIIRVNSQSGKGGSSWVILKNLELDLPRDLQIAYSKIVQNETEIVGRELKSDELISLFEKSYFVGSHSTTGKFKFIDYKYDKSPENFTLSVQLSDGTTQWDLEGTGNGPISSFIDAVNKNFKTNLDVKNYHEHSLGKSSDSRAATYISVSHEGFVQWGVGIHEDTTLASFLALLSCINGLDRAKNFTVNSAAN
Described as above. The class given is biochemical. To be noted: kinetic dissociation constant; varied with α-KIV 0.01–0.25 mM; 50 mM phosphate pH 7.5, 140 mM KCl, 4 mM MgCl2, 30 °C, DTNB; read-out: Kia /. An excerpt: initial velocity kinetics from kinetic global fit, ordered bi-bi on KlLeu4BIS

The target in data set [3] is T2, KlLeu4BIS. The experiment in a line: initial velocity inhibition kinetics, global fit. The class given is biochemical. To be noted: read-out: Kis /. The source says:
initial velocity inhibition kinetics, global fit on KlLeu4BIS

For data set [4], the target named is T3, KlLeu4 (Kluyveromyces lactis, UniProt Q6CIW1).
T3 construct: gene KLLA0_F23529g; native untagged enzyme in whole cell extract of the Klleu4bisΔ single mutant; homodimer
The experiment in a line: α-IPMS activity in whole cell extract, DTNB assay […] nm. In kind it is biochemical. As to conditions: 0.25 mM acetyl-CoA, 10 mM α-KIV, 50 mM phosphate pH 7.5, 140 mM KCl, 4 mM MgCl2, 30 °C.

The target in data set [5] is T4, KlLeu4BIS (Kluyveromyces lactis, UniProt Q6CQU3).
T4 construct: gene KLLA0_D14201g; native untagged enzyme in whole cell extract of the Klleu4Δ single mutant; homodimer
Described as above. The class given is biochemical. To be noted: 0.25 mM acetyl-CoA, 10 mM α-KIV, 50 mM phosphate pH 7.5, 140 mM KCl, 4 mM MgCl2, 30 °C.

The target of data set [6] is T1, KlLeu4. The experiment in a line: initial velocity inhibition kinetics, global fit. In kind it is biochemical. As to conditions: read-out: Kis /. The source says: initial velocity inhibition kinetics, global fit on KlLeu4
Substrate in data set [7]: CC(=O)SCCNC(=O)CCNC(=O)[C@H](O)C(C)(C)COP(=O)(O)OP(=O)(O)OC[C@H]1O[C@@H](n2cnc3c(N)ncnc32)[C@H](O)[C@@H]1OP(=O)(O)O
The experiment in a line: initial velocity kinetics, global fit, ordered bi-bi. The class given is biochemical, Kluyveromyces lactis. As to conditions: α-KIV co-varied 0.002–0.08 mM, 50 mM phosphate pH 7.5, 140 mM KCl, 4 mM MgCl2, 30 °C, DTNB. The source says:
(§1) initial velocity kinetics, global fit, ordered bi-bi on KlLeu4

Substrate in data set [8]: CC(C)C(=O)C(=O)O
Described as above. In kind it is biochemical, Kluyveromyces lactis. To be noted: acetyl-CoA co-varied 0.002–0.1 mM, 50 mM phosphate pH 7.5, 140 mM KCl, 4 mM MgCl2, 30 °C, DTNB.
Excerpt: as §1

Substrate in data set [9]: CC(=O)SCCNC(=O)CCNC(=O)[C@H](O)C(C)(C)COP(=O)(O)OP(=O)(O)OC[C@H]1O[C@@H](n2cnc3c(N)ncnc32)[C@H](O)[C@@H]1OP(=O)(O)O
Described as above. In kind it is biochemical, Kluyveromyces lactis. To be noted: α-KIV co-varied 0.01–0.25 mM, 50 mM phosphate pH 7.5, 140 mM KCl, 4 mM MgCl2, 30 °C, DTNB. An excerpt:
(§2) initial velocity kinetics, global fit, ordered bi-bi on KlLeu4BIS

Substrate in data set [10]: CC(C)C(=O)C(=O)O
The description is as above. As to conditions: acetyl-CoA co-varied 0.008–0.1 mM, 50 mM phosphate pH 7.5, 140 mM KCl, 4 mM MgCl2, 30 °C, DTNB. The class given is biochemical, Kluyveromyces lactis.
Excerpt: as §2

`CC(=O)SCCNC(=O)CCNC(=O)[C@H](O)C(C)(C)COP(=O)(O)OP(=O)(O)OC[C@H]1O[C@@H](n2cnc3c(N)ncnc32)[C@H](O)[C@@H]1OP(=O)(O)O` [acetyl coenzyme A]: the Kd at KlLeu4 [1] came to 17 ± 5 µM; at KlLeu4BIS [2], 12 ± 7 µM.
Consider `CC(C)C[C@H](N)C(=O)O` [leucine], for which the values for the Ki on KlLeu4BIS [3] and at KlLeu4 [6] were 31 ± 8 µM and 34 ± 11 µM, respectively. In addition, the IC50 against KlLeu4 [4] came to 20 µM; against KlLeu4BIS [5], 37 µM.

B1: KlLeu4 (Kluyveromyces lactis NRRL Y-1140) (protein)
chain: MIFRNTVVRLAQAGKKAIPPVKLAYKNMLKDPSTKYRPYPQINLENRQWPSKTITKAPRWLSTDLRDGNQSLPDPMSVEQKKEYFHKLIEIGFKEIEVSFPSASQTDFDFTRYAVENAPEDVSIQCLVQSREHLIRRTVEALHGAKKATIHTYLATSDMFRDIVFNMSQEEAIAKAVEATKLVRKLTKDDPSQSATQWTYQFSPECFSDTPVEFAVEICEAVKAAWEPTEENPIIFNLPATVEVATPNIYADQIEYFSTHISEREKVCISTHAHNDRGCGVAASELGILAGADRVEGCLFGNGERTGNVDLVTVALNMYTQGVSPELDLSDINSVIEVVERCNKIAVSPRAPYGGDLVVCAFSGSHQDAIKKGFNLQEKRRSQGDTLWKIPYLPLDPKDIGRDYEAVIRVNSQSGKGGAAWVVLRSLGLDLPRNLQIEFSTQVQEKADALGKELKANEIVSTFKSLYNLDGSASNISLLEYNVSKVQGDQKSFVGQVQIDNEVVGIEGLGNGPISSLIDALSNLLGVKLGVANYTEHSLGSGSSTKAASYVHIAYRREIDNEKAYQWGIGMSEDVGEASAKAILSAVNNLIKKGELTIPAHRDSASASA
notes: expressed in E. coli BL21(DE3), Ni-NTA purified (tag not described); homodimer
With B1, the Michaelis constant (Km) in [7] came to 26 ± 3 µM; in [8], 25 ± 3 µM.

B2: KlLeu4BIS (Kluyveromyces lactis NRRL Y-1140) (protein)
chain: MPFYKDPSVKYKPFVSNVKLQDRKWPSKTLNKAPRWLATDLRDGNQSLPDPMNLEEKKLMLDKLCELGFKEIEVAFPSASNIDFQFTQYAVKNVPEDVSIQVLSPCREPLIERTVESLVGAKRAIVHIYLATSPCFREIVFNNMSHEESIEKAVKCAKLVRSLTKDHPDRQDTHWSFEFSPETFSDSEPDFVLEICEAVKAAWGPTEDNPIIFNLPATVEMATPNVYADQIEYFAQSISEREKVCISLHPHNDRGCAVAAAELAQMAGADRVEGCLFGNGERTGNVDLVTLALNLYTQGVSPNLDFSDMASIIEVVEKCNKIPVHARAPYGGQLVVCAFSGSHQDAIKKGFEKYDNKVKALQEKEGPDAVVPWKMPYLPLDPQDIGRTYEAIIRVNSQSGKGGSSWVILKNLELDLPRDLQIAYSKIVQNETEIVGRELKSDELISLFEKSYFVGSHSTTGKFKFIDYKYDKSPENFTLSVQLSDGTTQWDLEGTGNGPISSFIDAVNKNFKTNLDVKNYHEHSLGKSSDSRAATYISVSHEGFVQWGVGIHEDTTLASFLALLSCINGLDRAKNFTVNSAAN
notes: expressed in E. coli Rosetta 2 (DE3), Ni-NTA purified (tag not described); homodimer
Consider B2, for which the Michaelis-Menten constant (Km) in data set [9] stood at 19 ± 5 µM; in [10] it was 55 ± 13 µM.
